Measurements: US4774248A, “Methods of treating depression and depressive states using 5-phenyl-1,4,5,6-tetrahydropyrimidine derivatives” (priority 1985, dated 1988)
“Also recorded” adds a separate entry of the source.

Columns and labels:
[1] = test system: hypothermia, righting behavior and stereotypies induced by apomorphine; test: Interaction with apomorphine in mice; format: in vivo
How it was run: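 Male mice, groups of 6, given test compound intraperitoneally in distilled water (20 ml/kg) 30 min before subcutaneous apomorphine at 1 or 16 mg/kg. Hypothermia, righting behaviour and stereotypies scored.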

[2] = test system: hypothermia induced by apomorphine; test: Interaction with apomorphine by gastric administration; format: in vivo; conditions: Mus musculus, male mice, apomorphine 16 mg/kg s.c., read-out: dose as from which the hypothermia induced by apomorphine is opposed
Method: Each test product is administered gastrically to male mice, in a volume of 20 ml/kg, 0.50 h before the subcutaneous injection of 16 mg/kg of apomorphine.

[3] = test system: stereotypies induced by apomorphine; test: Interaction with apomorphine in rats; format: in vivo; conditions: i.p., apomorphine 0.5 mg/kg s.c.
Method: (§1) The results of toxicological and neuropsychopharmacological tests which were carried out with the products according to the invention have been summarized below. In these tests, solutions of the said products in distilled water were administered intraperitoneally in a volume of 20 ml/kg to male mice and in a volume of 5 ml/kg to male rats.
CRL 41 378 is administered to groups of 12 rats 0.5 h before the subcutaneous injection of 0.5 mg/kg of apomorphine.

[4] = test system: rats; test: Overall behavior and reactivities in rats; format: in vivo; conditions: i.p.
How it was run: (§2)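 Male mice (20 ml/kg) and male rats (5 ml/kg) dosed intraperitoneally with compound in distilled water.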

[5] = test system: depressions and depressive states; test: Clinical trials in depression and depressive states; format: in vivo, human; conditions: daily oral administration to adults
Method: The clinical trials which have been undertaken have made it possible to determine that the daily dose to be administered orally to adults, in the treatment of depressions and depressive states, is generally between 3 and 120 mg for the products of the formulae Ia and Ib according to the invention.

[6] = test system: mice; test: Motility reduced by hypoxic aggression (acute hypobaric anoxia); format: in vivo; conditions: i.p., hydrochloride
Method: In these tests, solutions of the said products in distilled water were administered intraperitoneally in a volume of 20 ml/kg to male mice and in a volume of 5 ml/kg to male rats.

[7] = test system: mice; test: Four plate test; format: in vivo; conditions: i.p.
Method: as §1
The test is performed on groups of 10 mice 30 minutes after the administration of CRL 41 378.

[8] = test system: mice; test: Asphyxiant anoxia caused by gallamine triiodoethylate; format: in vivo; conditions: i.p., gallamine triiodoethylate 32 mg/kg
Method: as §1
Groups of 10 mice receive CRL 41 378 30 minutes before the intraperitoneal administration of 32 mg/kg of gallamine triiodoethylate (reference curarizing agent).

[9] = test system: male mice; test: Acute toxicity, intraperitoneal (LD0, LD30, LD60, LD100); format: in vivo; conditions: intraperitoneal
Method: as §1

[10] = test system: sleep induced by barbital; test: Interaction with barbital; format: in vivo; conditions: mice, i.p.; barbital 220 mg/kg
Method: as §1
Half an hour after the administration of CRL 41 378, groups of 10 mice receive an intraperitoneal injection of barbital (220 mg/kg).

[11] = test system: hypothermia and ptosis induced by reserpine; test: Interaction with reserpine; format: in vivo; conditions: mice, i.p.; reserpine 2.5 mg/kg; hydrochloride
How it was run: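 Reserpine 2.5 mg/kg i.p. given to male mice in groups of 12; test compound dissolved in distilled water and given i.p. (20 ml/kg) four hours later.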

[12] = test system: mice; test: Spontaneous motility (actimeter); format: in vivo; conditions: i.p.
How it was run: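 Male mice (6 per dose, 12 controls) received CRL 41 378 in distilled water i.p. at 20 ml/kg; 0.5 h later they were placed in an actimeter and motility was recorded for 30 minutes.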

[13] = test system: central nervous system (CNS); test: Neuropsychopharmacological profile (conclusions of the tests); format: in vivo, mice and rats; conditions: i.p.
Method: as §1

[14] = test system: pregnant rabbits; test: Teratogenic effects on pregnant rabbits; format: in vivo
[15] = test system: mice; test: Overall behavior and reactivities in mice; format: in vivo; conditions: i.p.
How it was run: as §2

[16] = test system: hypothermia, trembling and peripheral cholinergic symptoms induced by oxotremorine; test: Interaction with oxotremorine; format: in vivo; conditions: mice, i.p.
How it was run: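 Male mice, groups of 6, given the compound intraperitoneally in distilled water (20 ml/kg) 0.5 h before 0.5 mg/kg oxotremorine i.p. Hypothermia, trembling and peripheral cholinergic symptoms were assessed.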

[17] = test system: anesthetized dogs; test: Cardiovascular study in anesthetized dogs; format: in vivo
[18] = test system: mice; test: Motility reduced by habituation to the enclosure; format: in vivo; conditions: i.p.
Method: as §1
After they have stayed in the actimeters for 18 hours, the mice (6 per dose, 12 control animals) receive CRL 41 378. They are immediately returned to their respective enclosures and, half an hour later, their motility is recorded for 30 minutes.

[19] = test system: mice; test: Intergroup aggressiveness; format: in vivo; conditions: mice, i.p.
How it was run: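 Male mice housed 3 weeks per group in cage halves split by an opaque partition; groups of 3 given CRL 41 378 i.p. in distilled water.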

`Cl.OC1(c2ccccc2)CN=CNC1` (centres unmarked) [CRL 41 382, 5-hydroxy-5-phenyl-1,4,5,6-tetrahydropyrimidine hydrochloride] was tested, and the minimal effective dose ([1]; Mus musculus, ip, read-out: dose as from which the hypothermia induced by apomorphine is antagonized) was at least 1 mg/kg, the “action on righting behavior and stereotypies due to apomorphine” value ([1]; i.p.) was “practically no modification of the righting behavior and stereotypies” and the “action on hypothermia induced by apomorphine” value ([1]; i.p., hydrochloride) was “as from a dose of 1 mg/kg and especially at doses of 16 to 64 mg/kg, CRL 41 382 opposes the hypothermia induced by apomorphine; also recorded: antagonism of the hypothermia induced by apomorphine, oxotremorine and reserpine in mice”. For the same molecule, the minimal effective dose [2] was at least 2 mg/kg, the “action on stereotypies induced by apomorphine” value [3] was “practically no modification of the stereotypies induced by apomorphine” and the “overall behavior and reactivities” value ([4]; 0.5 mg/kg, 2 mg/kg and 8 mg/kg) was “behavior, reactivities and variations in the pupil diameter and rectal temperature which are analogous to those of the control group”. The “overall behavior and reactivities” value ([4]; 32 mg/kg) was “moderate mydriasis for 1 h”, the “results in human therapy (depression)” value [5] was “excellent results” and the “motor recovery after acute hypobaric hypoxia” value [6] was “At doses of 16 mg/kg and 64 mg/kg, CRL 41 382 causes an increase in the motor recovery; also recorded: moderate increase in the motor recovery of mice after acute hypobaric hypoxia”. For the same molecule, the “number of punished passes” value [7] was “practically no modification of the number of punished passes”, the “time taken for convulsions and death / lethal effects of gallamine triiodoethylate” value [8] was “practically no modification of the time taken for convulsions and death to occur” and the “LD0 (maximum non-lethal dose)” value [9] was “greater than 256 mg/kg”. For the same molecule, the LD60 [9] was about 500 mg/kg, the “duration of the sleep induced by barbital” value [10] was “practically no modification of the duration of the sleep induced by barbital” and the “action on hypothermia induced by reserpine” value [11] was “At doses of 4 mg/kg and 16 mg/kg, CRL 41 382 opposes the hypothermia induced by reserpine; also recorded: At the highest dose used (64 mg/kg), CRL 41 382 has no effect on the hypothermia induced by reserpine; also recorded: antagonism of the hypothermia induced by reserpine no longer appears at the high dose of CRL 41 382 used”. For the same molecule, the “action on ptosis induced by reserpine” value [11] was “practically no modification of the ptosis induced by reserpine; also recorded: absence of antagonism of the ptosis induced by reserpine”, the spontaneous motor activity [12] was “does not modify the spontaneous motor activity of mice” and the antidepressant effects [13] was “antidepressant effects appearing as from the lowest doses used”. The peripheral anticholinergic activity [13] was “absence of peripheral anticholinergic activity”, the sedative effects [13] was “sedative effects appearing transiently at the highest doses used (with no detectable decrease in the motor activity)” and the stimulant effects ([13]; hydrochloride) was “absence of any motor stimulation; also recorded: absence of stimulant effects”. For the same molecule, the teratogenic effects [14] was “devoid of harmful teratogenic effects on pregnant rabbits”, the “overall behavior and reactivities” value ([15]; 1 mg/kg, 4 mg/kg and 16 mg/kg) was “no distinct modification of the behavior and reactivities compared with the control animals” and the “overall behavior and reactivities” value ([15]; 64 mg/kg, hydrochloride) was “sedation for 1 h; also recorded: a decrease in the reactivity to touch and the fear reaction for 0.5 h”. The minimal effective dose ([16]; Mus musculus, ip, read-out: dose as from which the hypothermia induced by oxotremorine is antagonized) was at least 1 mg/kg, the “action on signs of peripheral cholinergic stimulation induced by oxotremorine” value ([16]; oxotremorine 0.5 mg/kg) was “practically no modification of the trembling or the signs of peripheral cholinergic stimulation due to oxotremorine” and the “action on trembling induced by oxotremorine” value ([16]; oxotremorine 0.5 mg/kg) was “practically no modification of the trembling”. The “action on hypothermia induced by oxotremorine” value ([16]; oxotremorine 0.5 mg/kg, hydrochloride) was “the antagonism is very intense at a dose of 64 mg/kg; also recorded: antagonism of the hypothermia induced by apomorphine, oxotremorine and reserpine in mice”, the “blood flows through the femoral and vertebral arteries” value ([17]; intraduodenal) was “decreases the blood flows through the femoral and vertebral arteries” and the “blood flows through the femoral and vertebral arteries” value ([17]; intravenous) was “decreases the blood flows through the femoral and vertebral arteries”. For the same molecule, the “resumption in the motor activity of mice accustomed to their enclosure” value [18] was “does not cause a resumption in the motor activity of mice accustomed to their enclosure” and the “intergroup aggressiveness (number of fights)” value [19] was “practically no modification of the number of fights”.
